From patent publication US20190223483A1, “SENSORY MODIFIER COMPOUNDS” (CARGILL, INCORPORATED, priority 2017, published 2019)
Entries after “also recorded” stand apart in the source; their conditions may differ.

Assays:
Assay type in all cases: in vivo
[1] = Roundtable assessment of botanical notes (scale 0 to 5); design: key: 0 = none; 1 = trace/faint; 2 = slight; 3 = moderate; 4 = definite; 5 = strong; 6 = extreme
Experimental: (§1) For other sweetness attributes, the solutions were tested by a panel of at least four individuals that are highly-trained in tasting steviol glycoside solutions. The highly-trained panelists used a roundtable methodology to assess each sweetness attribute. To test each solution, the highly-trained panelists dispensed approximately 2 mL of each solution into their own mouths by transfer pipet, dispersed the solution by moving their tongues, and recorded a value for the particular sweetness attribute being tested. Between tasting solutions, the panelists were able to cleanse their palates with water. For each sweetness attribute, the panelist agreed on a descriptive scale with relative intensities assigned for each sweetness attribute and then recorded the values for each sweetness attribute against this. For example, this roundtable assessment of sweetness linger assigned a scale of 0 to 6 with a score of 0 indicating no sweetness linger and a score of 6 indicating extreme sweetness linger. Roundtable assessment of sweetness linger assigned a scale of 0 to 6 with a score of 0 indicating no sweetness linger and a score of 6 indicating extreme sweetness linger (0=none, 1=trace, 2=slight, 3=moderate, 4=definite, 5=strong, 6=extreme). Roundtable assessment of rounded assigned a scale of 0 to 3 with a score of 0 indicating spikey and a score of 3 indicating desirable rounded (0=none, 1=mostly spikey, some rounded, 2=mostly rounded, some spikey, 3=rounded). Roundtable assessment of mouthfeel assigned a scale of 0 to 2 with a score of 0 indicating water and a score of 2 indicating syrupy (0=water, 1=sucrosey, 2=syrupy). Roundtable assessment of bitterness assigned a scale of 0 to 6 with a score of 0 indicating no bitterness and a score of 6 indicating extreme sweetness linger (0=none, 1=trace, 2=slight, 3=moderate, 4=definite, 5=strong, 6=extreme). Roundtable assessment of off tastes assigned a scale of 0 to 6 with a score of 0 indicating no bitterness and a score of 6 indicating extreme off tastes (0=none, 1=trace, 2=slight, 3=moderate, 4=definite, 5=strong, 6=extreme).
Roundtable assessment of botanical notes assigned a scale of 0 to 5 with a score of 0 indicating no botanical notes and a score of 5 indicating strong (0=none, 1=trace, 2=slight, 3=moderate, 4=definite, 5=strong).
A series of assays were carried out to characterize botanical notes of sensory modifier compound (0=none, 1=trace/faint, 2=slight, 3=moderate, 4=definite, 5=strong) in steviol glycoside compositions using the roundtable methodology described in Example 1. […] Solutions of steviol glycosides and sensory modifier compound were prepared at increasing ratios of sensory modifier to steviol glycoside by weight. […] The concentration of steviol glycosides was 700 ppm in each solution. The solutions were tested for botanical notes.

[2] = Roundtable assessment of spikey/rounded sweetness quality (scale 0 to 3); design: key: 0=none; 1=mostly spikey, some rounded; 2=mostly rounded, some spikey; 3=rounded
Experimental: as §1
A series of assays were carried out to characterize a sweetness quality of a not preferred spikey quality (a zero value) to a more desirable rounded quality (a 3 value) of steviol glycoside compositions with sensory modifier compound using the roundtable methodology described in Example 1. Rounded quality has the sensory experience of being more like sucrose. […] Solutions of steviol glycosides and sensory modifier compound were prepared at increasing ratios of sensory modifier to steviol glycoside by weight. The steviol glycosides were RebA (4 glycoside groups), RebD (5 glycoside groups), RebM (6 glycoside groups), and OPS1-5(7 glycoside groups) and the sensory modifier compound was monocaffeoylquinic and dicaffeoylquinic acids prepared from yerba mate. […] The solutions were tested for spikey/rounded.

[3] = Roundtable assessment of bitterness (scale 0 to 6); design: key: 0 = none; 1 = trace/faint; 2 = slight; 3 = moderate; 4 = definite; 5 = strong; 6 = extreme
Experimental: as §1
(§2) A series of assays were carried out to characterize bitterness (0=none, 1=trace/faint, 2=slight, 3=moderate, 4=definite, 5=strong, 6=extreme) of steviol glycoside compositions with sensory modifier compound using the roundtable methodology described in Example 1. […] Solutions of steviol glycosides and sensory modifier compound were prepared at increasing ratios of sensory modifier to steviol glycoside by weight. The steviol glycosides were RebA (4 glycoside groups), RebD (5 glycoside groups), RebM (6 glycoside groups), and OPS1-5(7 glycoside groups) and the sensory modifier compound was monocaffeoylquinic and dicaffeoylquinic acids prepared from yerba mate. The concentration of steviol glycosides was 700 ppm in each solution. The solutions were tested for bitterness.

[4] = Roundtable assessment of off taste (scale 0 to 6); design: key to Off taste / off taste score: 0 = none; 1 = trace/faint; 2 = slight; 3 = moderate; 4 = definite; 5 = strong; 6 = extreme
Experimental: as §1
as §2, with “off taste” for “bitterness”, “off taste. Off taste included astringency, metallic, powdery, numbing, and vapory attributes.” for “bitterness.”

[5] = RebM 700 ppm + cichoric acid (tartaric backbone) 772 ppm
[6] = RebM 700 ppm + cichoric acid (tartaric backbone) […]
[7] = RebM 700 ppm + rosmarinic acid 195 ppm
[8] = RebM 700 ppm + rosmarinic acid 391 ppm
[9] = RebM 700 ppm + rosmarinic acid 586 ppm
[10] = steviol glycoside 700 ppm + yerba mate mono/dicaffeoylquinic acids 236 ppm
[11] = steviol glycoside 700 ppm + yerba mate mono/dicaffeoylquinic acids 300 ppm
[12] = steviol glycoside 700 ppm + yerba mate mono/dicaffeoylquinic acids 400 ppm
[13] = steviol glycoside 700 ppm + yerba mate mono/dicaffeoylquinic acids 472 ppm
[14] = steviol glycoside 700 ppm + yerba mate mono/dicaffeoylquinic acids 500 ppm
[15] = steviol glycoside 700 ppm + yerba mate mono/dicaffeoylquinic acids 600 ppm
[16] = steviol glycoside 700 ppm + yerba mate mono/dicaffeoylquinic acids 700 ppm
[17] = steviol glycoside 700 ppm + yerba mate mono/dicaffeoylquinic acids 708 ppm
[18] = steviol glycoside 700 ppm + yerba mate mono/dicaffeoylquinic acids 800 ppm
[19] = steviol glycoside 700 ppm, sensory modifier 0 ppm
[20] = quinic, tartaric or 3-(3,4-dihydroxyphenyl)lactic acid backbone modifier above 200 ppm

Structure (SMILES): C=C1C[C@@]23CC[C@H]4[C@@](C)(CCC[C@@]4(C)C(=O)O[C@@H]4O[C@H](CO)[C@@H](O)[C@H](O[C@@H]5O[C@H](CO)[C@@H](O)[C@H](O)[C@H]5O)[C@H]4O[C@@H]4O[C@H](CO)[C@@H](O)[C@H](O)[C@H]4O)[C@@H]2CC[C@]1(O[C@@H]1O[C@H](CO)[C@@H](O)[C@H](O[C@@H]2O[C@H](CO)[C@@H](O)[C@H](O)[C@H]2O)[C@H]1O[C@@H]1O[C@H](CO)[C@@H](O)[C@H](O)[C@H]1O)C3 [RebM, Rebaudioside M]
- Botanical notes ([1]; RebM 700 ppm + cichoric acid (tartaric backbone) 514 ppm): 4
- Botanical notes [1, 5]: 5
- Botanical notes [1, 6]: 3
- Botanical notes [1, 7]: 2
- Botanical notes [1, 8]: 3
- Botanical notes [1, 9]: 2
- Botanical notes ([1]; RebM 700 ppm, quinic backbone modifier between 0 ppm and about 400 ppm): imperceptible
- Botanical notes [1, 10]: Not Observed
- Botanical notes [1, 11]: 0
- Botanical notes [1, 12]: 0
- Botanical notes [1, 13]: 1
- Botanical notes [1, 14]: 0
- Botanical notes [1, 15]: 2
- Botanical notes [1, 16]: 2
- Botanical notes [1, 17]: 2
- Botanical notes [1, 18]: 2
- Botanical notes [1, 19]: 0
- Spikey/rounded (spikey = 0) (rounded = 3) ([2]; RebM 100 ppm + yerba mate mono/dicaffeoylquinic acids 100 ppm (1:1)): 0
- Spikey/rounded (spikey = 0) (rounded = 3) ([2]; RebM 200 ppm + yerba mate mono/dicaffeoylquinic acids 200 ppm (1:1)): 0
- Spikey/rounded (spikey = 0) (rounded = 3) ([2]; RebM 300 ppm + yerba mate mono/dicaffeoylquinic acids 300 ppm (1:1)): 1
- Spikey/rounded (spikey = 0) (rounded = 3) ([2]; RebM 400 ppm + yerba mate mono/dicaffeoylquinic acids 400 ppm (1:1)): 1
- Spikey/rounded (spikey = 0) (rounded = 3) ([2]; RebM 500 ppm + yerba mate mono/dicaffeoylquinic acids 500 ppm (1:1)): 1
- Spikey/rounded (spikey = 0) (rounded = 3) ([2]; RebM 600 ppm + yerba mate mono/dicaffeoylquinic acids 600 ppm (1:1)): 1
- Spikey/rounded (spikey = 0) (rounded = 3) [2, 7]: 0
- Spikey/rounded (spikey = 0) (rounded = 3) [2, 8]: 2
- Spikey/rounded (spikey = 0) (rounded = 3) [2, 9]: 3
- Spikey/rounded (spikey = 0) (rounded = 3) ([2]; RebM 700 ppm + yerba mate mono/dicaffeoylquinic acids 700 ppm (1:1)): 2
- rounded quality ([2]; RebM 700 ppm, above 200 ppm sensory modifier): 2
- Spikey/rounded (spikey = 0) (rounded = 3) ([2]; RebM 800 ppm + yerba mate mono/dicaffeoylquinic acids 800 ppm (1:1)): 2
- Spikey/rounded (spikey = 0) (rounded = 3) ([2]; RebM 900 ppm + yerba mate mono/dicaffeoylquinic acids 900 ppm (1:1)): 2
- Spikey/rounded (spikey = 0) (rounded = 3) ([2]; RebM 1000 ppm + yerba mate mono/dicaffeoylquinic acids 1000 ppm (1:1)): 2
- Spikey/rounded (spikey = 0) (rounded = 3) ([2]; RebM 1100 ppm + yerba mate mono/dicaffeoylquinic acids 1100 ppm (1:1)): 2
- Spikey/rounded (spikey = 0) (rounded = 3) ([2]; RebM 1200 ppm + yerba mate mono/dicaffeoylquinic acids 1200 ppm (1:1)): 2
- Spikey/rounded (spikey = 0) (rounded = 3) ([2]; RebM 1300 ppm + yerba mate mono/dicaffeoylquinic acids 1300 ppm (1:1)): 2
- Spikey/rounded (spikey = 0) (rounded = 3) ([2]; RebM 1400 ppm + yerba mate mono/dicaffeoylquinic acids 1400 ppm (1:1)): 2
- Spikey/rounded (spikey = 0) (rounded = 3) ([2]; RebM 1500 ppm + yerba mate mono/dicaffeoylquinic acids 1500 ppm (1:1)): 2
- Spikey/rounded (spikey = 0) (rounded = 3) ([2]; RebM 1600 ppm + yerba mate mono/dicaffeoylquinic acids 1600 ppm (1:1)): 2
- rounded quality ([2]; RebM solution with 300 ppm sensory modifier): 3
- Spikey/rounded (spikey = 0) (rounded = 3) [2, 10]: 2
- Spikey/rounded (spikey = 0) (rounded = 3) [2, 11]: 2
- Spikey/rounded (spikey = 0) (rounded = 3) [2, 12]: 3
- Spikey/rounded (spikey = 0) (rounded = 3) [2, 13]: 3
- Spikey/rounded (spikey = 0) (rounded = 3) [2, 14]: 3
- Spikey/rounded (spikey = 0) (rounded = 3) [2, 15]: 2
- Spikey/rounded (spikey = 0) (rounded = 3) [2, 16]: 3
- Spikey/rounded (spikey = 0) (rounded = 3) [2, 17]: 3
- Spikey/rounded (spikey = 0) (rounded = 3) [2, 18]: 3
- Spikey/rounded (spikey = 0) (rounded = 3) [2, 19]: 0
- Bitterness [3, 5]: 0
- Bitterness [3, 6]: 0
- Bitterness [3, 7]: 0
- Bitterness [3, 8]: 0
- Bitterness ([3]; RebM 700 ppm, about 200 ppm sensory modifier and above): not perceptible
- Sweetness linger ([3]; Table 16: RebM 700 ppm + yerba mate mono/dicaffeoylquinic acids 236 ppm): 0
- Sweetness linger ([3]; Table 16: RebM 700 ppm + yerba mate mono/dicaffeoylquinic acids 300 ppm): 0
- Sweetness linger ([3]; Table 16: RebM 700 ppm + yerba mate mono/dicaffeoylquinic acids 400 ppm): 0
- Sweetness linger ([3]; Table 16: RebM 700 ppm + yerba mate mono/dicaffeoylquinic acids 472 ppm): 0
- Sweetness linger ([3]; Table 16: RebM 700 ppm + yerba mate mono/dicaffeoylquinic acids 500 ppm): 0
- Sweetness linger ([3]; Table 16: RebM 700 ppm + yerba mate mono/dicaffeoylquinic acids 600 ppm): 0
- Sweetness linger ([3]; Table 16: RebM 700 ppm + yerba mate mono/dicaffeoylquinic acids 700 ppm): 0
- Sweetness linger ([3]; Table 16: RebM 700 ppm + yerba mate mono/dicaffeoylquinic acids 708 ppm): 0
- Sweetness linger ([3]; Table 16: RebM 700 ppm + yerba mate mono/dicaffeoylquinic acids 800 ppm): 0
- Sweetness linger ([3]; Table 16: RebM 700 ppm, sensory modifier 0 ppm): 5
- Bitterness [3, 20]: none
- Bitterness [3, 10]: 0
- Bitterness [3, 13]: 0
- Bitterness [3, 17]: 0
- Bitterness [3, 19]: 5
- Off taste [4, 6]: 0
- Off taste [4, 7]: 0
- Off taste [4, 9]: 0
- off taste ([4]; RebM 700 ppm, about 200 ppm and above of sensory modifier): not perceptible; also recorded: between slight and none
- off taste [4, 20]: none
- Off taste [4, 10]: 0
- Off taste [4, 11]: 0
- Off taste [4, 12]: 2
- Off taste [4, 13]: 0
- Off taste [4, 14]: 0
- Off taste [4, 15]: 2
- Off taste [4, 16]: 0
- Off taste [4, 17]: 0
- Off taste [4, 18]: 2
- Off taste [4, 19]: 5
